Tests used:
[1] = tested on: corticosterone-injured PC12 cells; experiment: Protective effects on corticosterone-injured PC12 cells (MTT); assay type: cell-based, rat; details: 24 h after treatment; for PR (protection rate): 200 μM corticosterone
Protocol: PC12 cells were purchased from American Type Culture Collection and were maintained in DMEM medium supplemented with penicillin (100 unit/ml), streptomycin (100 μg/ml), 5% fetal bovine serum (FBS), and 10% horse serum at 37 °C in humidified atmosphere with 5% CO2. The detailed procedures were performed referring to the reported literatures. Briefly, PC12 cells of logarithmic growth phase were collected, re-suspended and then seeded at a density of 1 × 10^5 cells per well in 96-well plates and cultured in the DMEM medium with 5% horse serum, 10% FBSfor 24 h.
After incubation with compounds, 20 μl of 5 mg/ml MTT solution was added to each well and cultured at 37 °C for 2 h–4 h. Then, the culture medium was removed, and 150 μl dimethyl sulfoxide(DMSO) was added to each well for 15 min at room temperature. The absorbance of each well was measured at 570 nm using a microplate reader. The protective rates (PR) were calculated according to equation (1).

HEK293 cells = experiment: Cytotoxicity on HEK293 cells (MTT); assay type: cell-based, human; details: Homo sapiens, HEK293, 100μM, after treatment; read-out: IR (inhibitory rate) HEK293
Protocol: (§1) Human normal hepatic L02 cells, human embryonic kidney cell line 293 cells (HEK293) and Rattus myoblast cell line H9C2 cells were respectively seeded in 96-well plates at a density of 4 × 10^3 cells per well and cultured in the 1640 or DMEM medium, with the supplement of 10% fetal bovine serum, penicillin (100 unit/ml), streptomycin (100 μg/ml) in a humidified incubator with 5% CO2 for 24 h. […] The cytotoxicities of the compounds were evaluated by MTT method.

L02 cells = experiment: Cytotoxicity on L02 cells (MTT); assay type: cell-based, human; details: Homo sapiens, L02, 100μM, after treatment; read-out: IR (inhibitory rate) L02
Protocol: as §1

H9C2 cells = experiment: Cytotoxicity on H9C2 cells (MTT); assay type: cell-based; details: Rattus norvegicus, 48 h
Protocol: Human normal hepatic L02 cells, human embryonic kidney cell line 293 cells (HEK293) and Rattus myoblast cell line H9C2 cells were respectively seeded in 96-well plates at a density of 4 × 10^3 cells per well and cultured in the 1640 or DMEM medium, with the supplement of 10% fetal bovine serum, penicillin (100 unit/ml), streptomycin (100 μg/ml) in a humidified incubator with 5% CO2 for 24 h. After adherence, L02, HEK293 and H9C2 cells were exposed to different compounds for another 48 h. The cytotoxicities of the compounds were evaluated by MTT method.

[2] = PAMPA-BBB permeation assay; assay type: in vitro ADME; details: for Papp at 18 h, 100 μg/mL: Pe ± SD (n = 3), pH 7.4
Protocol: Parallel artificial membrane permeation assay (PAMPA) was performed according to the literature[44] with minor modification. The PVDF (Poly(vinylidene fluoride)) membrane of the donor plate was coated with PBL (Polar Brain Lipid, Avanti, USA) in dodecane (4 μL of 20 mg/mL PBL in dodecane) and the acceptor well was filled with 350 μL of PBS/EtOH (70/30, v/v, pH 7.4) buffer (VD). The tested compound was dissolved in DMSO and then diluted with PBS/EtOH (70/30, v/v, pH 7.4) buffer to reach the concentration of 100 μg/mL in the donor well.
200 μL of the donor solution was added to the donor wells (VA) and the donor filter plate was carefully put on the acceptor plate so that the coated membrane contacted both donor solution and acceptor buffer. Test compound diffused from the donor well through the lipid membrane (area = 0.28 cm^2) to the acceptor well. The concentration of the drug in both donor and the acceptor wells was assessed after 18 hours of incubation at room temperature in triplicate using Varioskan Flash Multimode Reader (Thermo Scientific) at the maximum absorption wavelength of tested compound. Concentration of the compound was calculated from the standard curve and expressed as the permeability (Pe) according to Equation (2):

SD rats [3] = experiment: Forced swim test; assay type: in vivo, rat; details: ig. 32 mg/kg/day, days 2–15
Protocol: The detailed procedures were performed according to our previous studies. Briefly, each SD rat was placed in a vertical Plexiglas cylinder (height 50 cm; diameter 20 cm) containing 18 cm height of water at 25 ± 2 °C and was forced to swim individually for 15 min on1st day. From 2nd day to 15th day, the rats were intragastrically administered compound 6a-1 or control drugs at dosage of 32 mg/kg/day. On the 2nd day and 15th day, 30 minutes after drug treatment, each rat was placed again into water and forced to swim for 6 min. The rat behavior was recorded by a video camera placed directly facing cylinders. The duration of immobility during the last 4 minutes was analyzed by Xeye Animal behavior analysis system (Xeye Aba V3.2). The rat was considered as immobile when its moving speed was less than 20 mm/s. The dosage of is 32 mg/kg every day. The water in the cylinder was changed each trial. After each exposure, animals were partially dried with a towel and returned to their home cages. All tests were performed in a quiet room.

SD rats [4] = experiment: Open field locomotor activity; assay type: in vivo, rat; details: ig. 32 mg/kg/day, days 2–15, vs untreated rats
Protocol: The detailed procedures were performed according to our previous studies. In brief, each SD rat was placed at the center of the open field (50 × 50 cm^2 chamber, 50-cm-high walls, with a 25 cm^2 area in the middle of floor defined as the central square) for 6 min in a quiet room. The animals were gently placed in the center of the platform and were allowed to explore the surroundings. A camera was installed above the center of the field. Immediately after a rat was placed at the center in the open field, the movements and position of the animals were recorded and registered automatically by computerized system. Next test was performed after cleaning the chamber. The traveled tracks of rats were recorded for 6 minutes and the videos of the last 4 minutes were analyzed also by Xeye Animal behavior analysis system.

[5] = tested on: corticosterone injured PC12 cells; experiment: Intracellular GSH level; assay type: cell-based, rat; details: 200 μM corticosterone and 5 μM drug; vehicle-treated PC12 cells = 100%
Protocol: The GSH level was measured by reference of literatures’ methods[55][56] with appropriate revision. […] After being incubated on ice for 10 min, the lysate was centrifuged at 10 000 rpm for 10 min. […] The mixture was centrifuged at 3000 × g for 10 min at 4 °C, and then 200 μL of the resulting supernatant was mixed with 1 mL of phosphate buffer (100 mM, pH 8.0) and 50 μL of 5, 5-dithiobis-2-nitrobenzoic acid (DTNB).

[6] = tested on: corticosterone injured PC12 cells; experiment: Intracellular ROS level (DCF-DA); assay type: cell-based, rat; details: 200 μM corticosterone and 5 μM drug; vehicle-treated PC12 cells = 100%
Protocol: In brief, PC12 cells were washed with D-Hanks after drug treatment. Then cells were incubated with 2′, 7′-dichloro-fluorescein diacetate (DCF-DA, 20 μM) for 30 min at 37 °C in darkness.

[7] = tested on: corticosterone injured PC12 cells; experiment: Real-time PCR BDNF mRNA level; assay type: cell-based, rat; details: 200 µM corticosterone and 5 µM drug
rat hippocampus [8] = experiment: Cell survival, proliferation and maturation in the rat hippocampus; assay type: in vivo; details: rats, 21 days
Protocol: (§2) The detailed procedures were performed according to the reported literatures.
Wistar rats were used herein. Agomelatine were purchased from Dalian Meilun Biotech Company. […] For cell proliferation study, BrdU (200 mg/kg i.p.) was administered 2 h before perfusion. For cell maturation and survival studies, animals received five injections of BrdU (75 mg/kg, 2 h intervals) the first day of treatment and were killed 21 days later. […] was randomly selected 8 visual fields for statistical analysis.

rat hippocampus [9] = experiment: BDNF, VEGF and IGF-1 level in vivo (ELISA); details: 21-day treatment, i.p. 40 mg/kg, vs vehicle-treated group
Protocol: as §2
SD rats were killed by decapitation and hippocampi were dissected out and stored at −80 °C until use. Tissue samples were homogenized at 4 °C in Promega lysis buffer for ELISA. Samples were then sonicated and lysates were cleared by centrifugation at 4 °C, 15 000 g. Protein concentrations were determined according to the Bradford assay using bovine serum albumin as standard. Quantifications of VEGF and IGF-1 proteins were measured with Quantikine M mouse VEGF and IGF-1enzyme immunoassay kits and BDNF protein with a mouse ELISA kit.

C57 mice = experiment: Acute toxicity evaluation with H&E histology; assay type: in vivo, mouse
Protocol: Ten mice of each group were sacrificed on the 7th day, their heart, liver, spleen, lung and kidney were harvested and H&E histological staining was performed. Then the stained tissues were observed by two pathologists in a blinded manner.

Structure (SMILES)	PR (protection rate) ([1]; 5 μM)	PR (protection rate) ([1]; […])	inhibition at 100 µM (HEK293 cells)	inhibition at 100 µM (L02 cells)	IC50 (H9C2 cells)	CNS(+/−) prediction of blood-brain barrier penetration [2]	Papp at 18 h, 100 μg/mL [2]	mean immobility time reduced compared to the model group (SD rats [3])	improved travelled distance (SD rats [4])	GSH level [5]	ROS level [6]	BDNF mRNA level increase compared with corticosterone-injured group [7]	expression of PSA-NCAM compared with vehicle-treated group (rat hippocampus [8]; i.p. 40 mg/kg)	hippocampal IGF-1 level (rat hippocampus [9])	hippocampal VEGF level (rat hippocampus [9])	heart histology (H&E) (C57 mice; 140 mg/kg/day, 7th day)	liver histology (H&E) (C57 mice; 140 mg/kg/day, 7th day)	spleen histology (H&E) (C57 mice; 140 mg/kg/day, 7th day)	other results
COc1ccc2c(c1)C(CCNC(C)=O)=NCC2.O=C(O)C(=O)O [6a-1, N-(2-(7-Methoxy-3,4-dihydroisoquinolin-1-yl)ethyl) acetamide oxalate]	42.1%	37.1%	< 20%	< 20%	455 µM	CNS+	16.7 ± 0.41 ×10⁻⁶ cm/s	62.5%	131.2%	87.7%	140.3%	42.8%	reduced the expression of PSA-NCAM	neither compound 6a-1 nor Agomelatine exerted any influence	neither compound 6a-1 nor Agomelatine exerted any influence	cardiac myocytes were fragmented and arranged promiscuously	hepatic cords were distinctly clear	unchanged	number of BrdU-labeled neuron cells (proliferation) (rat hippocampus [8]; i.p. 40 mg/kg once daily): remarkably increased; number of BrdU-labeled neuron cells (survival) (rat hippocampus [8]; i.p. 40 mg/kg once daily): remarkably increased; number of NeuN cells compared with vehicle-treated group (rat hippocampus [8]; i.p. 40 mg/kg): significant (P < 0.001) increase; number of PSA-NCAM-labeled cells relative to Agomelatine group (rat hippocampus [8]; i.p. 40 mg/kg): approximately three-fold decrease; kidney histology (H&E) (C57 mice; 140 mg/kg/day, 7th day): did not show any significant difference compared with normal; lung histology (H&E) (C57 mice; 140 mg/kg/day, 7th day): did not show any significant difference compared with normal; clinical signs of toxicity (C57 mice; intragastric 140 mg/kg/day, 7-day administration): No visible clinical signs of toxicity
COc1ccc2cccc(CCNC(C)=O)c2c1 [Agomelatine, reference compound]	17.6%	24.2%	47.5%	41.8%	375 µM	CNS+	17.8 ± 0.37 ×10⁻⁶ cm/s	8.4%	91.2%	93.4%	125.0%	37.2%	reduced the expression of PSA-NCAM	neither compound 6a-1 nor Agomelatine exerted any influence	neither compound 6a-1 nor Agomelatine exerted any influence	no necrosis, hemorrhage or inflammatory exudates were observed	severely damaged	unchanged	PR (protection rate), Table S1 ([1]; 1.25µM): 28.1%; PR (protection rate) ([1]; 1.25 μM): 28.1%

Source: publication PMC5048153 (Scientific Reports, 2016)
